# Measured values: PMC6934184, “Selective DNA-PKcs inhibition extends the therapeutic index of localized radiotherapy and chemotherapy” (The Journal of Clinical Investigation, 2019)
# Biological target: T1, WEE1 (Homo sapiens, UniProt P30291)
# T1 construct: purchased Thermo Fisher Scientific (Life Technologies) SelectScreen
# Assay: SelectScreen LanthaScreen
# Assay type: binding
# Details: read-out: % displacement
# Outline: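 SelectScreen broad panel; activity (Z'LYTE, Adapta) plus binding formats. ATP: Km app for CSF1R Z'LYTE; 10 for CAMK1 Adapta. Readout = % per kinase.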
# T1 sequence (P30291 whole entry): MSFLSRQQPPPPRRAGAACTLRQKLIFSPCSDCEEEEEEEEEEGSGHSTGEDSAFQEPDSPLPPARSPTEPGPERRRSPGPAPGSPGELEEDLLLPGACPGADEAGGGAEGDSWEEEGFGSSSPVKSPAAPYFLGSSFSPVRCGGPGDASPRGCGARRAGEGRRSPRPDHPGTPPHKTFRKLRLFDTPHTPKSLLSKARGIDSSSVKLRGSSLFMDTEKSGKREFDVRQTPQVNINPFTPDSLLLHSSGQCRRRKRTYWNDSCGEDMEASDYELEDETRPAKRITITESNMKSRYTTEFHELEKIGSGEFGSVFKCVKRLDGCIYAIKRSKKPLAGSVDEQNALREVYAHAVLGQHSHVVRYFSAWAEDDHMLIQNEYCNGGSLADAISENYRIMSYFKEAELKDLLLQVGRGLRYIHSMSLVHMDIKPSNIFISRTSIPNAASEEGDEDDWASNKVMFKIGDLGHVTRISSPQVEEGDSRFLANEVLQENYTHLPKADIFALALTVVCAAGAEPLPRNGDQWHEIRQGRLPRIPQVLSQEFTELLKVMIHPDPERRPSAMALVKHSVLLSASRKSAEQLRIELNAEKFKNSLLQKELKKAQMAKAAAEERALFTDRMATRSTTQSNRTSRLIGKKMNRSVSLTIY
smiles,measurement,value
CN(C(=O)CN1CCOCC1)c1ccc2sc3c(-c4cccc5c(=O)cc(N6CC7CCC(C6)O7)oc45)cccc3c2c1 [NU5455],inhibition at 1 µM,18.2%
